Data as given in patent publication EP3428647A1, “EXPRESSION SIGNATURE FOR GLIOMA DIAGNOSIS AND/OR PROGNOSIS IN A SUBJECT” (Consejo Superior de Investigaciones Científicas (CSIC), priority 2017, dated 2019).
Where two headings read alike, the source gives them in different places.

Columns and labels:
SF268 = test: Cytotoxic assay MTT, monolayer culture; assay type: cell-based, human; settings: for IC50: Homo sapiens, monolayer
Method: (§1) The human Glioblastoma cell line SF268 and U251MG were cultured in RPMI 1640 medium (SIGMA) supplemented with 10% Fetal Bovine Serum (FBS) at 37°C under 5% CO2 atmosphere. For DNA transfection, SF268 and U251MG were transfected with Mirus TransIT-X2 Dynamic Delivery System (Mirus MIR6000) in exponential phase with 2.5 µg of a small hairping RNA (shRNA) against NAMPT (QIAGEN SureSilencing shRNA insert sequence: 5'-[…]-3' (SEQ ID NO: 17)), 2.5 µg of DNA carrying an hygromycin empty vector (QIAGEN noncoding sequence: 5'-[…]-3' (SEQ ID NO: 18)) and 2.5 µg of DNA of pCMV-hygromycin carrying a cDNA of NAMPT gene (SinoBiological HG10990-M).
5x10^3 SF268 cells were seeded then treated with FK866 24 hours later. After 96 hours, cell viability was measured with MTT.
(§2) For the assay, 5x10^3 cells were seeded and then treated with the different compound at 11 different concentrations at 1/3 dilutions after 24 hours. Then, 96 hours later, cell viability was measured via MTT assay and validated independently by crystal violet staining. IC50 was calculated as the concentration allowing 50% survival compared to day 0 controls. Combination experiments were performed testing 11 different concentrations at 1/3 dilutions of FK866 and maintaining same suboptimal concentration of TMZ (as indicated) in all tested points.

U251MG = test: Cytotoxic assay MTT, monolayer culture; assay type: cell-based; settings: Homo sapiens
Method: as §1, §2

SF268 tumorspheres = test: Cytotoxic assay, tumorsphere specific assay; assay type: cell-based, human; settings: for IC50: Homo sapiens
Method: (§3) A total of 5x10^3 cells/mL/well were seeded in Ultra-low Attachment Plates containing MammoCultTM Basal Medium (Human) (Stem Cell Tech) supplied with 0.48 mg/mL hydrocortisone, 0.2% heparin solution and 10% MammoCult™ Proliferation Supplement (Human). After 4 days, primary tumorspheres were measured, both in size and in number, using an inverted microscope (Olympus CKX41).
as §2

U251MG tumorspheres = test: Cytotoxic assay, tumorsphere specific assay; assay type: cell-based; settings: Homo sapiens
Method: as §3, §2

[1] = test system: NAMPT- underexpressing cells; test: Clonal heterogeneity analysis (clone phenotypes), rescue; assay type: cell-based, human; settings: 1 mM NMN; both cell lines
Method: (§4) 10^3 cells were seeded in 10 cm plates, every condition in triplicate. The medium was replaced every 3 days and after 12 days the colonies were fixed and stained with a Crystal violet assay. After extensive-washing, colonies were counted. Values are expressed in number of observed colonies among 10^3 seeded cells. To analyze the clonal heterogeneity, 10^2 random colonies were classified in triplicate depending on its phenotype: Holoclone, Meroclone and Paraclone (Li H. et al 2008.; Garcia-Heredia JM, Lucena-Cacace A, Verdugo-Sivianes EM, Perez M, Carnero A. The cargo protein MAP17 (PDZK1IP1) regulates the cancer stem cell pool activating the Notch pathway by abducting NUMB. Clin Cancer Res. 2017 Feb 2. doi: 10.1158/1078-0432.CCR-16-2358. [
(§5) NAMPT catalyzes the conversion of nicotinamide to nicotinamide mononucleotide (NMN), which is the rate-limiting step in the NAD salvage pathway. If the enzymatic activity of NAMPT is directly responsible for these phenotypes, the phenotype should be recovered by directly adding the product of the enzyme to cells. Therefore, we repeated the previous surrogate experiments and added saturating concentrations of NMN to cells expressing low levels of NAMPT (sh supplemented with NMN, sh+NMN). In these experiments, we rescued the parental phenotypes by supplying the cells with the NAMPT metabolic product NMN (Figure 6A-D left). […]

[2] = test system: SF268 NAMPT-underexpressing cells; test: Colony formation (clonogenicity) assay, rescue; assay type: cell-based, human; settings: 1 mM NMN; compared to sh
Method: as §4, §5

[3] = test system: SF268 NAMPT-underexpressing cells; test: Sphere-forming assay, rescue; assay type: cell-based, human; settings: 1 mM NMN; compared to sh
Method: as §3
(§6) NAMPT catalyzes the conversion of nicotinamide to nicotinamide mononucleotide (NMN), which is the rate-limiting step in the NAD salvage pathway. If the enzymatic activity of NAMPT is directly responsible for these phenotypes, the phenotype should be recovered by directly adding the product of the enzyme to cells. Therefore, we repeated the previous surrogate experiments and added saturating concentrations of NMN to cells expressing low levels of NAMPT (sh supplemented with NMN, sh+NMN). In these experiments, we rescued the parental phenotypes by supplying the cells with the NAMPT metabolic product NMN (Figure 6A-D left). […] Similar results were found using a second shRNA against NAMPT (Figure 4A, B).
Similar results were found using a second shRNA against NAMPT (Figure 4A, B).

[4] = test system: SF268 NAMPT-underexpressing cells; test: Proliferation assay (growth curve), rescue of NAMPT-underexpressing cells; assay type: cell-based, human; settings: 1 mM NMN; compared to sh
Method: A time course curve of parental (empty vector transfected cells) and NAMPT both cDNA and shRNA-expressing cells was generated by seeding […] in 2.2 cm bottom-well diameter dishes in triplicate samples. After 24 hours, medium was changed (day 0) and the indicated culture media added. Every 24 hours, cells were fixed and stained with crystal violet 1% (SIGMA C6158-50G). After extensive washing, crystal violet was solubilized in 20% acetic acid (Sigma) and quantified at 595 nm absorbance as a relative measure of cell number (BIORAD iMarkTM Microplate Reader). Values are expressed as the percentage of cell growth of cells growing in the presence of 10% FBS. Zero percent refers to the number of cells at day 0.
as §5

[5] = test system: SF268 and U251MG NAMPT-underexpressing cells; test: FACS analysis of CD133 and CD44, rescue; assay type: cell-based, human; settings: 1 mM NMN; both cell lines
Method: Single cells were individually seeded through cell sorting (BD FACS Jazz) in 96 well Ultra-low attachment plates containing MammoCultTM Basal medium (Human) (Stem Cell Tech) supplied with hydrocortisone 0.48 mg/mL, Heparin solution 0.2% and 10% MammoCult™ Proliferation Supplement (Human). After 21 days, primary tumorspheres formed were measured both in size and number using inverted microscope (Olympus CKX41). Fluorescence-activated cell sorting (FAC). For FACS staining, live cells were incubated with CD133 (AC133-PE, Miltenyi) and CD44 (PE, Miltenyi) for 30 minutes at dilutions specified in the manufacturer's protocols.
as §6, with “B). […]” for “B).”

[6] = SF-268, SF268 NAMPT (overexpressing), combined with constant 100 µM TMZ, read-out: IC50 FK866 + 100 µM TMZ (nM ± SD)
[7] = SF-268, SF268 sh (NAMPT shRNA), combined with constant 100 µM TMZ, read-out: IC50 FK866 + 100 µM TMZ (nM ± SD)
[8] = SF-268, SF268 v (vector only), combined with constant 100 µM TMZ, read-out: IC50 FK866 + 100 µM TMZ (nM ± SD)
[9] = U-251, U251MG NAMPT (overexpressing), combined with constant 150 µM TMZ, read-out: IC50 FK866 + 150 µM TMZ (nM ± SD)
[10] = U-251, U251MG sh (NAMPT shRNA), combined with constant 150 µM TMZ, read-out: IC50 FK866 + 150 µM TMZ (nM ± SD)
[11] = U-251, U251MG v (vector only), combined with constant 150 µM TMZ, read-out: IC50 FK866 + 150 µM TMZ (nM ± SD)

SMILES: O=C(/C=C/c1cccnc1)NCCCCC1CCN(C(=O)c2ccccc2)CC1 [FK866]
- IC50 (SF268; SF-268, 96 h, SF268 NAMPT (overexpressing), monotherapy, 96 hours, read-out: IC50 FK866 (nM ± SD)): 2.8 ± 0.3 nM
- IC50 (SF268; SF-268, 96 h, SF268 sh (NAMPT shRNA), monotherapy, 96 hours, read-out: IC50 FK866 (nM ± SD)): 8.3 ± 0.8 nM
- IC50 (SF268; SF-268, 96 h, SF268 v (vector only), monotherapy, 96 hours, read-out: IC50 FK866 (nM ± SD)): 5.2 ± 0.9 nM
- IC50 (SF268; [6]): 0.2 ± 0.4 nM
- IC50 (SF268; [7]): 6.1 ± 0.2 nM
- IC50 (SF268; [8]): 2.4 ± 0.4 nM
- effect of combined treatment with TMZ on the values (SF268; both in mass cultures and tumorspheres): slightly sensitized
- sensitivity of NAMPT-overexpressing cells in mass cultures (SF268; compared with parental cells and NAMPT underexpressing cells): more sensitive
- IC50 (U251MG; U-251, 96 h, U251MG NAMPT (overexpressing), monotherapy, 96 hours, read-out: IC50 FK866 (nM ± SD)): 15.3 ± 1.2 nM
- IC50 (U251MG; U-251, 96 h, U251MG sh (NAMPT shRNA), monotherapy, 96 hours, read-out: IC50 FK866 (nM ± SD)): 22.3 ± 0.6 nM
- IC50 (U251MG; U-251, 96 h, U251MG v (vector only), monotherapy, 96 hours, read-out: IC50 FK866 (nM ± SD)): 20.7 ± 0.7 nM
- IC50 (U251MG; [9]): 5.1 ± 1.4 nM
- IC50 (U251MG; [10]): 19.4 ± 0.7 nM
- IC50 (U251MG; [11]): 14.3 ± 1.3 nM
- induced toxicity in tumorspheres (CIC population) (SF268 tumorspheres): effective
- IC50 (SF268 tumorspheres; [6]): 0.5 ± 1.1 nM
- IC50 (SF268 tumorspheres; SF-268, SF268 NAMPT (overexpressing), monotherapy, read-out: IC50 FK866 (nM ± SD)): 2.5 ± 0.4 nM
- IC50 (SF268 tumorspheres; [7]): 7.3 ± 0.7 nM
- IC50 (SF268 tumorspheres; SF-268, SF268 sh (NAMPT shRNA), monotherapy, read-out: IC50 FK866 (nM ± SD)): 9.5 ± 0.9 nM
- IC50 (SF268 tumorspheres; [8]): 4.2 ± 0.3 nM
- IC50 (SF268 tumorspheres; SF-268, SF268 v (vector only), monotherapy, read-out: IC50 FK866 (nM ± SD)): 6.1 ± 1.2 nM
- IC50 (U251MG tumorspheres; [9]): 7.2 ± 0.7 nM
- IC50 (U251MG tumorspheres; U-251, U251MG NAMPT (overexpressing), monotherapy, read-out: IC50 FK866 (nM ± SD)): 11.3 ± 1.3 nM
- IC50 (U251MG tumorspheres; [10]): 25.4 ± 1.8 nM
- IC50 (U251MG tumorspheres; U-251, U251MG sh (NAMPT shRNA), monotherapy, read-out: IC50 FK866 (nM ± SD)): 27.3 ± 1.4 nM
- IC50 (U251MG tumorspheres; [11]): 17.1 ± 0.9 nM
- IC50 (U251MG tumorspheres; U-251, U251MG v (vector only), monotherapy, read-out: IC50 FK866 (nM ± SD)): 18.6 ± 1.9 nM

SMILES: NC(=O)c1ccc[n+](C2OC(COP(=O)([O-])O)C(O)C2O)c1 (stereo not drawn) [NMN, nicotinamide mononucleotide]
- number of holoclones [1]: can rescue the number of holoclones in the vector
- clonogenicity [2]: can rescue the clonogenetic ability of the vector
- tumorsphere area / number of tumorspheres [3]: can rescue the number of tumorspheres generated in the vector
- growth curve, vector-proliferation ratio [4]: can rescue the vector-proliferation ratio
- levels of CD44 expression [5]: can rescue the levels of CD44 expression in the vector
- levels of CD133 expression [5]: can rescue and surpass the levels of CD133 expression in the vector

SMILES: Cn1nnc2c(C(N)=O)ncn2c1=O [TMZ, Temozolomide]
- IC50 (SF268; SF-268, 96 h, SF268 NAMPT (overexpressing), monotherapy, 96 hours, read-out: IC50 TMZ (µM ± SD)): 174000 ± 2100 nM
- IC50 (SF268; SF-268, 96 h, SF268 sh (NAMPT shRNA), monotherapy, 96 hours, read-out: IC50 TMZ (µM ± SD)): 163000 ± 2200 nM
- IC50 (SF268; SF-268, 96 h, SF268 v (vector only), monotherapy, 96 hours, read-out: IC50 TMZ (µM ± SD)): 165000 ± 1900 nM
- IC50 (U251MG; U-251, 96 h, U251MG NAMPT (overexpressing), monotherapy, 96 hours, read-out: IC50 TMZ (µM ± SD)): 201000 ± 5300 nM
- IC50 (U251MG; U-251, 96 h, U251MG sh (NAMPT shRNA), monotherapy, 96 hours, read-out: IC50 TMZ (µM ± SD)): 204000 ± 4800 nM
- IC50 (U251MG; U-251, 96 h, U251MG v (vector only), monotherapy, 96 hours, read-out: IC50 TMZ (µM ± SD)): 194000 ± 3400 nM
- IC50 (SF268 tumorspheres; SF-268, SF268 NAMPT (overexpressing), monotherapy, read-out: IC50 TMZ (µM ± SD)): 173000 ± 3200 nM
- IC50 (SF268 tumorspheres; SF-268, SF268 sh (NAMPT shRNA), monotherapy, read-out: IC50 TMZ (µM ± SD)): 174000 ± 3600 nM
- IC50 (SF268 tumorspheres; SF-268, SF268 v (vector only), monotherapy, read-out: IC50 TMZ (µM ± SD)): 170000 ± 2100 nM
- IC50 (U251MG tumorspheres; U-251, U251MG NAMPT (overexpressing), monotherapy, read-out: IC50 TMZ (µM ± SD)): 222000 ± 4700 nM
- IC50 (U251MG tumorspheres; U-251, U251MG sh (NAMPT shRNA), monotherapy, read-out: IC50 TMZ (µM ± SD)): 221000 ± 3200 nM
- IC50 (U251MG tumorspheres; U-251, U251MG v (vector only), monotherapy, read-out: IC50 TMZ (µM ± SD)): 224500 ± 1700 nM
